Data on 3 compounds can be found in PubChem BioAssay (NCI).

Some test systems named below: HCC-2998 colon; HL-60(TB) leukemia; HOP-92 NSCLC; K-562 leukemia; LOX IMVI melanoma; MDA-N; OVCAR-8 ovarian; RXF 393 renal; SF-539 CNS; SK-MEL-2 melanoma; T-47D breast; RPMI-8226 leukemia.
Holding throughout (assay): NCI tumour cell line growth inhibition, 48 h

SMILES strings stand for the structures. In brackets after ≈: the same amount, converted by molar mass.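 The compound was tested at five concentrations on cells cultured in 96-well plates, with a 48-hour exposure period. Abbreviation: GI50, concentration required for 50% inhibition of growth. At the TGI there is no net growth.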

Consider `O=c1oc2ccccc2c(O)c1Cc1ccc(Cc2c(O)c3ccccc3oc2=O)cc1`, for which the TGI in the test with HCC-2998 colon, in the test on HL-60(TB) leukemia, with HOP-92 NSCLC, with K-562 leukemia, in the test on LOX IMVI melanoma and with MDA-N was above 100 µM throughout. Further, the TGI with OVCAR-8 ovarian, in the test on RXF 393 renal, in the test with SF-539 CNS, with SK-MEL-2 melanoma and with T-47D breast was above 100 µM in each case.

`O=C1NN(C2=NNC3(C(=O)N2)c2ccccc2-c2ccccc23)C(c2ccccc2)=N/C1=C/c1ccc(Cl)cc1`: the GI50 was 50.1 µg/mL (≈ 91.9 µM) in the test with HL-60(TB) leukemia; 50.4 µg/mL (≈ 92.6 µM) with K-562 leukemia; 56.1 µg/mL (≈ 103 µM) in the test on LOX IMVI melanoma; 78.1 µg/mL (≈ 143 µM) in the test on OVCAR-8 ovarian; 63.6 µg/mL (≈ 117 µM) with RPMI-8226 leukemia; 56.9 µg/mL (≈ 104 µM) with RXF 393 renal. Besides, the values for the GI50 in the test on SF-539 CNS and in the test with T-47D breast were 50.9 µg/mL (≈ 93.4 µM) and 13.4 µg/mL (≈ 24.6 µM), respectively. The TGI in the test on HL-60(TB) leukemia, in the test on K-562 leukemia, with LOX IMVI melanoma, in the test with OVCAR-8 ovarian, in the test on RPMI-8226 leukemia and in the test with RXF 393 renal was above 150 µg/mL in each case. In addition, the TGI in the test on SF-539 CNS was above 150 µg/mL; with T-47D breast, 149 µg/mL.

Take `COC(=O)C(Cc1cn(C(C)n2cc(CC(NC(C)=O)C(=O)OC)c3ccccc32)c2ccccc12)NC(C)=O` (configuration not stated): the TGI with HCC-2998 colon, in the test on HOP-92 NSCLC, in the test with MDA-N, in the test with RPMI-8226 leukemia and in the test with SK-MEL-2 melanoma was above 100 µM throughout.
